Here are results for 6 compounds from patent US20210221848A1, “POLYMYXIN DERIVATIVES AND THEIR USE IN COMBINATION THERAPY TOGETHER WITH DIFFERENT ANTIBIOTICS” (priority 2014, published 2021).

Values after ≈ are worked out from the molar mass of the structure shown. Like-named read-outs stand apart in the source and are kept apart here. Numbered stars: 1 amine (or outer) side, 2 acyl side, 3 side chain; on linkers, the order of the positions; unused ones are H or OH. Bridge positions count the residues as written; N and C are the ends. Square brackets hold non-standard residues; d marks the D form. Peptide text beside a SMILES is read from it. X7 = CC(C)CN([C@@H](CN)C(=O)[*:2])[*:1]; aThr = C[C@H](O)[C@H](N)C(=O)O; Dab = NCC[C@H](N)C(=O)O Some results are limits rather than exact numbers.

Series [1] deals with E. coli.
In series [2] the test system is HK-2 cell line. The series is described as follows: In vitro renal cell toxicity assay (resazurin reduction). The protocol: MICs were determined as described herein. HK-2 cell IC50 values were determined as described herein. Values are reported relative to Polymyxin B.
In series [3] the test system is K. pneumoniae.
For series [4], the system named is P. aeruginosa.
The subject of series [5] is A. baumannii.
Series [6] has as its system P. aeruginosa strains with elevated MICs to Polymyxin B. The series is described as follows: MIC against strains with elevated MICs to Polymyxin B. It counts as cell-based, Pseudomonas aeruginosa. The conditions noted are these: Table 6D. Put shortly: (§1)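 Colonies picked from an 18-24 hour Mueller-Hinton agar plate are suspended directly and adjusted to 0.5 McFarland. Each MIC is run in duplicate. Values within 2-fold give the lower one; wider spread voids the assay; repeated testing yields the modal value.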

In series [7] the test system is A. baumanii strains with elevated MICs to Polymyxin B. Described as above. It counts as cell-based, Acinetobacter baumannii. The conditions noted are these: Table 6D. Put shortly: as §1
The test system of series [8] is K. pneumoniae strains with elevated MICs to Polymyxin B. The series is described as above. The format is cell-based, Klebsiella pneumoniae. The conditions noted are these: Table 6D. Put shortly:
as §1

Series [9] deals with E. coli strains with elevated MICs to Polymyxin B. The series is described as above. It counts as cell-based, Escherichia coli. The conditions noted are these: Table 6D. Put shortly: as §1
Series [10] has as its system A. baumannii. The series is described as follows: MIC in the presence of […] of rifampicin. It counts as cell-based, Acinetobacter baumannii. The protocol: (§2) The inoculum was prepared by making a direct suspension of isolated colonies (selected from an 18-24 hour Mueller-Hinton agar plate) adjusted to the 0.5 McFarland standard. […] The assays were performed in duplicate. […] In cases where the duplicate values varied by less than 2-fold, the lower of the two values is reported. If a variation of greater than 2-fold was observed, the assay was considered non-valid. Several of the compounds were subjected to multiple tests, and where this is the case, the MIC reflects the modal value obtained.

For series [11], the system named is E. coli. The series is described as follows: MIC in the presence of a fixed concentration (2 μg/mL) of Rifampicin. It counts as cell-based, Escherichia coli. The conditions noted are these: Rifampicin 2 μg/mL, Table 5D.
Series [12] concerns K. pneumoniae. Described as above. The format is cell-based, Klebsiella pneumoniae. The conditions noted are these: Rifampicin 2 μg/mL, Table 5D. Here is the method: as §2
[13] abbreviates: absence of a second agent, Table 6B.

Take “(S)-1-(2- methylpropyl)- piperazine-2- carbonyl polymyxin E nonapeptide [Example D56]”: in series [1] (sole activity, Table 6C), the “MIC, E. coli ATCC 25922” value was 0.25 micrograms/mL and the “MIC, E. coli NCTC 13441” value came out at 0.25 micrograms/mL. The “HK-2 IC50 rel to PMB*” value in [2] is 22. Further, in series [3] (sole activity, Table 6C), the “MIC, K. pneumoniae ATCC 4352” value was 0.125 micrograms/mL and the “MIC, K. pneumoniae ATCC BAA-2146” value turned out to be 0.25 micrograms/mL. In series [4] (sole activity, Table 6C), the “MIC, P. aeruginosa ATCC 27853” value came to 0.5 micrograms/mL and the “MIC, P. aeruginosa CCUG 59347” value was determined as 1 micrograms/mL. Moreover, in series [5] (sole activity, Table 6C), the “MIC, A. baumannii ATCC BAA-747” value is 0.5 micrograms/mL and the “MIC, A. baumannii NCTC 13424” value came to 0.5 micrograms/mL.

“trans-4-(2- methylpropyl) pyrrolidine-3- carbonyl-L-Thr- L-Dap-polymyxin B heptapeptide [Example D68]”: in series [1] (sole activity, Table 6C), the “MIC, E. coli ATCC 25922” value turned out to be 0.25 micrograms/mL and the “MIC, E. coli NCTC 13441” value came to 0.25 micrograms/mL. Also, the “MIC P. aeruginosa 065” value in series [6] (strain 065, elevated MIC to Polymyxin B) is 16 micrograms/mL. In addition, in [6] (strain 066, elevated MIC to Polymyxin B), the “MIC P. aeruginosa 066” value is listed as 16 micrograms/mL. In series [6] (strain 067, elevated MIC to Polymyxin B), the “MIC P. aeruginosa 067” value was more than 256 micrograms/mL. For the same compound, the “HK-2 IC50 rel to PMB*” value in [2] is reported as 5.3. In addition, the “MIC A. baumannii 053” value in series [7] (strain 053, elevated MIC to Polymyxin B) is listed as more than 256 micrograms/mL. For the same compound, in series [7] (strain 056, elevated MIC to Polymyxin B), the “MIC A. baumannii 056” value was found to be 128 micrograms/mL. Further, the “MIC A. baumannii 068” value in series [7] (strain 068, elevated MIC to Polymyxin B) came to 16 micrograms/mL. The “MIC K. pneumoniae 062” value in [8] (strain 062, elevated MIC to Polymyxin B) is 64 micrograms/mL. Further, in series [8] (strain 063, elevated MIC to Polymyxin B), the “MIC K. pneumoniae 063” value came out at 64 micrograms/mL. Besides, the “MIC K. pneumoniae 064” value in series [8] (strain 064, elevated MIC to Polymyxin B) is 16 micrograms/mL. In series [3] (sole activity, Table 6C), the “MIC, K. pneumoniae ATCC 4352” value was 0.125 micrograms/mL. Moreover, in series [4] (sole activity, Table 6C), the “MIC, P. aeruginosa ATCC 27853” value is given as 0.5 micrograms/mL and the “MIC, P. aeruginosa CCUG 59347” value was 0.5 micrograms/mL. Besides, in series [9] (strain 058, elevated MIC to Polymyxin B), the “MIC E. coli 058” value was 8 micrograms/mL. Also, the “MIC E. coli 059” value in [9] (strain 059, elevated MIC to Polymyxin B) is reported as 16 micrograms/mL. The “MIC E. coli 060” value in [9] (strain 060, elevated MIC to Polymyxin B) amounted to 8 micrograms/mL. Further, the “MIC E. coli 061” value in [9] (strain 061, elevated MIC to Polymyxin B) was 32 micrograms/mL. In [5] (sole activity, Table 6C), the “MIC, A. baumannii ATCC BAA-747” value is reported as 0.25 micrograms/mL and the “MIC, A. baumannii NCTC 13424” value came to 0.5 micrograms/mL.

Take `CC(C)CN[C@@H](CN)C(=O)N[C@H](C(=O)N[C@@H](CCN)C(=O)N[C@H]1CCNC(=O)[C@H]([C@@H](C)O)NC(=O)[C@H](CCN)NC(=O)[C@H](CCN)NC(=O)[C@H](CC(C)C)NC(=O)[C@@H](Cc2ccccc2)NC(=O)[C@H](CCN)NC1=O)[C@H](C)O` [Example D51, (S)-2-(2-methylpropylamino) 3-aminopropanoyl polymyxin B nonapeptide] (H-[X7][aThr][Dab][Dab][Dab][dF]L[Dab][Dab]T; lactam 4-C): the MIC stood at 0.5 µg/mL (≈ 0.452 µM) in series [1] and 1 µg/mL (≈ 0.905 µM) in series [5]. In addition, the “HK-2 IC50 rel to PMB” value in series [2] is 34.

For the compound “2-aminomethyl- 4-methyl pentanoyl polymyxin E nonapeptide [Example D53]”, in [1] (sole activity, Table 6C), the “MIC, E. coli ATCC 25922” value is 1 micrograms/mL and the “MIC, E. coli NCTC 13441” value amounted to 1 micrograms/mL. Moreover, in series [2], the “HK-2 IC50 rel to PMB*” value is recorded as 18.2. Also, in [3] (sole activity, Table 6C), the “MIC, K. pneumoniae ATCC 4352” value turned out to be 0.25 micrograms/mL and the “MIC, K. pneumoniae ATCC BAA-2146” value worked out at 1 micrograms/mL. In [4] (sole activity, Table 6C), the “MIC, P. aeruginosa ATCC 27853” value is listed as 0.5 micrograms/mL and the “MIC, P. aeruginosa CCUG 59347” value was found to be 1 micrograms/mL. In series [5] (sole activity, Table 6C), the “MIC, A. baumannii ATCC BAA-747” value was 1 micrograms/mL and the “MIC, A. baumannii NCTC 13424” value came to 2 micrograms/mL.

Regarding “trans-4-(2- methylpropyl) pyrrolidine-3-carbonyl polymyxin B nonapeptide [Example D38]”, in series [1] (setting [13]), the “MIC, E. coli ATCC 25922” value is recorded as 8 micrograms/mL and the “MIC, E. coli NCTC 13441” value was determined as 8 micrograms/mL. Further, the “HK-2 IC50 rel to PMB” value in series [2] is listed as 6.3. In series [3] (setting [13]), the “MIC, K. pneumoniae ATCC 4352” value is listed as 4 micrograms/mL and the “MIC, K. pneumoniae ATCC BAA-2146” value worked out at 8 micrograms/mL. In series [4] (setting [13]), the “MIC, P. aeruginosa ATCC 27853” value was determined as 1 micrograms/mL and the “MIC, P. aeruginosa CCUG 59347” value worked out at 2 micrograms/mL. In addition, in series [5] (setting [13]), the “MIC, A. baumannii ATCC BAA-747” value is reported as more than 8 micrograms/mL and the “MIC, A. baumannii NCTC 13424” value is recorded as 2 micrograms/mL.

Take “3-Amino-2- benzylpropanoylpoly- myxin B nonapeptide [Example D5]”: in series [1] (setting [13]), the “MIC, E. coli ATCC 25922” value is 8 micrograms/mL and the “MIC, E. coli NCTC 13441” value is recorded as more than 8 micrograms/mL. Also, the “HK-2 IC50 rel to PMB” value in [2] is 15.3. Also, the “MIC in combination with Rifampicin, A. baumannii ATCC BAA-747” value in [10] (A. baumannii ATCC BAA-747, Table 5D) is on record as 0.25 micrograms/mL. Also, the “MIC in combination with Rifampicin, A. baumannii NCTC 13424” value in series [10] (A. baumannii NCTC 13424, Table 5D) is given as not above 0.015 micrograms/mL. The “MIC in combination with Rifampicin, E. coli ATCC 25922” value in series [11] (E. coli ATCC 25922) is reported as 0.03 micrograms/mL. Besides, the “MIC in combination with Rifampicin, E. coli NCTC 13441” value in [11] (E. coli NCTC 13441) is 0.06 micrograms/mL. Moreover, the “MIC in combination with Rifampicin, K. pneumoniae ATCC 4352” value in series [12] (K. pneumoniae ATCC 4352) is 0.03 micrograms/mL. Further, in [12] (K. pneumoniae ATCC BAA-2146), the “MIC in combination with Rifampicin, K. pneumoniae ATCC BAA-2146” value came out at 0.25 micrograms/mL. In addition, in series [3] (setting [13]), the “MIC, K. pneumoniae ATCC 4352” value stood at 8 micrograms/mL and the “MIC, K. pneumoniae ATCC BAA-2146” value is more than 8 micrograms/mL. For the same compound, in series [4] (setting [13]), the “MIC, P. aeruginosa ATCC 27853” value is given as 1 micrograms/mL and the “MIC, P. aeruginosa CCUG 59347” value is reported as more than 8 micrograms/mL. For the same compound, in [5] (setting [13]), the “MIC, A. baumannii ATCC BAA-747” value is reported as more than 8 micrograms/mL and the “MIC, A. baumannii NCTC 13424” value is more than 8 micrograms/mL.
